According to patent US11384063B2, “Modulators of estrogen receptor proteolysis and associated methods of use” (Arvinas Operations, Inc., priority 2017, dated 2022):

Tests used:
ERα [1] = target: T1, ERα (Homo sapiens, UniProt P03372); assay: ERE luciferase reporter gene assay in T47D-KBluc cells (target engagement); assay type: cell-based; design: T47D human breast cancer cells stably transfected with estrogen responsive element/promoter/luciferase reporter gene; host or cells: T47D-KBluc cells; conditions: 10% FBS, 24 hours, Table 2 VHL centric PROTACs, read-out: IC50
T1 sequence (P03372 1-595): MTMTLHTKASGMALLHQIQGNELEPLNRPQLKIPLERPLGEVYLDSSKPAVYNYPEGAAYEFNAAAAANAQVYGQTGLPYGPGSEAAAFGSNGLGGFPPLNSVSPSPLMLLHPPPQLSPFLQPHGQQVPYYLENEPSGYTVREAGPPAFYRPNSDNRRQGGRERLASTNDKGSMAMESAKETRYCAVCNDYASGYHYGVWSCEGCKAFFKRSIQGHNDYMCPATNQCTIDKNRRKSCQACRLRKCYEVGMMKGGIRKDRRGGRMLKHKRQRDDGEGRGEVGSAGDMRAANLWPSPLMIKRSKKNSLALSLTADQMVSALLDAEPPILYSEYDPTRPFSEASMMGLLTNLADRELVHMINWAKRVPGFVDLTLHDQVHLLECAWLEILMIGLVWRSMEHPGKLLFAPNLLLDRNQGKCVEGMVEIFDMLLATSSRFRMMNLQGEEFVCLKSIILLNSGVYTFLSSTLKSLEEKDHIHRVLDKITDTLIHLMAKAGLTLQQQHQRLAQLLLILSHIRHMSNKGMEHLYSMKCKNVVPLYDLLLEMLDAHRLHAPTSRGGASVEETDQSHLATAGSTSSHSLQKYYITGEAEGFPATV
How it was run: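 T47D-KBluc breast cancer cells, which carry a stable ERE-luciferase reporter, were grown in RPMI with 10% FBS (about 10 pM estrogen) and exposed to PROTACs for 24 h. The 12-point, 3-fold series ran from 300 nM to 2 pM. Luciferase was read after lysis, and IC50 was fitted from duplicates.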

ERα [2] = target: T1, ERα; assay: Estrogen receptor-alpha (ERα) degradation assay in MCF-7 cells using western blot; assay type: cell-based; design: assessed for their activity in degrading ERα in MCF-7 cells via western blot; endogenous in cells; host or cells: MCF7 cells; conditions: ER-alpha degradation, MCF7 cells, 3 days of incubation
Description: Compounds prepared in this application were also analyzed for the degradation of ERα in MCF7 and T47D cells.
Estrogen Receptor-Alpha (ERα) Degradation Assay in MCF-7 Cells Using Western Blot Method for Table 4.
The exemplary novel ERα degraders were assessed for their activity in degrading ERα in MCF-7 cells via western blot. The assay was carried out in the presence of 10% fetal bovine serum (FBS) or high percentage of human or mouse serum.
MCF7 cells were grown in DMEM/F12 with 10% fetal bovine serum and seeded at 24,000 cells per well in 100 μl into 96-well clear tissue culture plates. The following day, the cells were treated with PROTACs in a […] concentration curve with 100 nM being the top concentration and serial dilutions to make the other concentrations (30 nM, 10 nM, 3 nM, 1 nM, and 0.3 nM). At all concentrations, 0.01% DMSO is the final concentration in the well. The following day, the plates are aspirated, washed with 50 μl of cold PBS. The cells are lysed with 50 μl/well 4° C. Cell Lysis Buffer (Catalog #9803; Cell Signaling Technology, Danvers, Mass.) (20 mM Tris-HCL (pH 7.5), 150 mM NaCl, 1 mM […], 1 mM EGTA, 1% Triton, 2.5 mM sodium pyrophosphate, 1 mM B-glycerophosphate, 1 mM sodium vanadate, 1 ug/ml leupeptin). Lysates were clarified at 16,000×g for 10 minutes, and 2 μg of protein was subjected to SDS-PAGE analysis and followed by immunoblotting according to standard protocols. The antibodies used were ERα (Cell Signaling Technologies Catalog #8644), and Tubulin (Sigma Catalog #T9026; St. Louis, Mo.). Detection reagents were Clarity Western ECL substrate (Bio-Rad Catalog #170-5060; Hercules, Calif.).
Alternatively, MCF7 cells were grown in DMEM/F12 with 10% fetal bovine serum and seeded at 24,000 cells per well in 500 μl in 24-well clear tissue culture plates. The following day, the cells were treated with PROTACs in a 5-point concentration curve (100 nM, 33 nM, 11 nM, 3.7 nM, and 1.2 nM) in the presence of 0.01% DMSO. After 72 hours, the wells are aspirated and washed with 500 μl of PBS. The cells are lysed with 100 μl/well 4° C. Cell Lysis Buffer (Catalog #9803; Cell Signaling Technology, Danvers, M A) (20 mM Tris-HCL (pH 7.5), 150 mM NaCl, 1 mM Na2EDTA, 1 mM EGTA, 1% Triton, 2.5 mM sodium pyrophosphate, 1 mM B-glycerophosphate, 1 mM sodium vanadate, 1 ug/ml leupeptin). Lysates were clarified at 16,000×g for 10 minutes, and 2 μg of protein was subjected to SDS-PAGE analysis and followed by immunoblotting according to standard protocols. The antibodies used were ER(X (Cell Signaling Technologies Catalog #8644), and Tubulin (Sigma Catalog #T9026; St. Louis, Mo.). Detection reagents were Clarity Western ECL substrate (Bio-Rad Catalog #170-5060; Hercules, Calif.).

| SMILES | IC50 (ERα [1]) [nM] | DC50 (ERα [2]) [nM] | Dmax (ERα [2]) [%] |
| --- | --- | --- | --- |
| Cc1ncsc1-c1ccc([C@H](C)NC(=O)[C@@H]2C[C@@H](O)CN2C(=O)[C@@H](NC(=O)COCCOCCOCCOc2ccc(Oc3c(-c4ccc(Cl)cc4)sc4cc(O)ccc34)cc2)C(C)(C)C)cc1 [Compound 119, (2S,4R)-1-((S)-2-tert-butyl-14-(4-(2-(4-chlorophenyl)-6-hydroxybenzo[b]thiophen-3-yloxy)phenoxy)-4-oxo-6,9,12-trioxa-3-azatetradecane)-4-hydroxy-N-((S)-1-(4-(4-methylthiazol-5-yl)phenyl)ethyl)pyrrolidine-2-carboxamide] | 1.1 | 1 to 10 | > 75 |
| Cc1ncsc1-c1ccc(CNC(=O)[C@@H]2C[C@@H](O)CN2C(=O)[C@@H](NC(=O)COCCOCCN2CCC(c3ccc(Oc4c(-c5ccc(F)cc5)sc5cc(O)ccc45)cc3)CC2)C(C)(C)C)cc1 [Compound 135, (2S,4R)-1-[(2S)-2-[2-(2-[2-[4-(4-[[2-(4-fluorophenyl)-6-hydroxy-1-benzothiophen-3-yl]oxy]phenyl)piperidin-1-yl]ethoxy]ethoxy)acetamido]-3,3-dimethylbutanoyl]-4-hydroxy-N-[[4-(4-methyl-1,3-thiazol-5-yl)phenyl]methyl]pyrrolidine-2-carboxamide] | 0.8 | < 1 | > 75 |
| Cc1ncsc1-c1ccc([C@H](C)NC(=O)[C@@H]2C[C@@H](O)CN2C(=O)[C@@H](NC(=O)COCCOCCN2CCC(c3ccc(Oc4c(-c5ccc(F)cc5)sc5cc(O)ccc45)cc3)CC2)C(C)(C)C)cc1 [Compound 142, (2S,4R)-1-[(2S)-2-[2-(2-[2-[4-(4-[[2-(4-fluorophenyl)-6-hydroxy-1-benzothiophen-3-yl]oxy]phenyl)piperidin-1-yl]ethoxy]ethoxy)acetamido]-3,3-dimethylbutanoyl]-4-hydroxy-N-[(1S)-1-[4-(4-methyl-1,3-thiazol-5-yl)phenyl]ethyl]pyrrolidine-2-carboxamide] | 0.5 | < 1 | > 75 |
| Cc1ncsc1-c1ccc(CNC(=O)[C@@H]2C[C@@H](O)CN2C(=O)[C@@H](NC(=O)COc2cccc(CCN(C)CCOc3ccc(Oc4c(-c5ccc(F)cc5)sc5cc(O)ccc45)cc3)c2)C(C)(C)C)cc1 [Compound 139, (2S,4R)-1-[(2S)-2-[2-[3-(2-[[2-(4-[[2-(4-fluorophenyl)-6-hydroxy-1-benzothiophen-3-yl]oxy]phenoxy)ethyl](methyl)amino]ethyl)phenoxy]acetamido]-3,3-dimethylbutanoyl]-4-hydroxy-N-[[4-(4-methyl-1,3-thiazol-5-yl)phenyl]methyl]pyrrolidine-2-carboxamide] | 0.6 | < 1 | > 75 |
| Cc1ncsc1-c1ccc(CNC(=O)[C@@H]2C[C@@H](O)CN2C(=O)[C@@H](NC(=O)COCCN2CCN(CCOc3ccc(Oc4c(-c5ccc(F)cc5)sc5cc(O)ccc45)cc3)CC2)C(C)(C)C)cc1 [Compound 118, (2S,4R)-1-((S)-2-(2-(2-(4-(2-(4-((2-(4-fluorophenyl)-6-hydroxybenzo[b]thiophen-3-yl)oxy)phenoxy)ethyl)piperazin-1-yl)ethoxy)acetamido)-3,3-dimethylbutanoyl)-4-hydroxy-N-(4-(4-methylthiazol-5-yl)benzyl)pyrrolidine-2-carboxamide] | 0.4 | < 1 | > 75 |
| Cc1ncsc1-c1ccc([C@H](C)NC(=O)[C@@H]2C[C@@H](O)CN2C(=O)[C@@H](NC(=O)COCCOCCOCCOc2ccc(Oc3c(-c4ccc(Br)cc4)sc4cc(O)ccc34)cc2)C(C)(C)C)cc1 [Compound 126, (2S,4R)-1-((S)-14-(4-(2-(4-bromophenyl)-6-hydroxybenzo[b]thiophen-3-yloxy)phenoxy)-2-tert-butyl-4-oxo-6,9,12-trioxa-3-azatetradecane)-4-hydroxy-N-((S)-1-(4-(4-methylthiazol-5-yl)phenyl)ethyl)pyrrolidine-2-carboxamide] | 0.2 | < 1 | > 75 |
| Cc1ncsc1-c1ccc(CNC(=O)[C@@H]2C[C@@H](O)CN2C(=O)[C@@H](NC(=O)COCCCCOc2ccc(-c3ccc(Oc4c(-c5ccc(F)cc5)sc5cc(O)ccc45)cc3)nc2)C(C)(C)C)cc1 [Compound 133, (2S,4R)-1-[(2S)-2-[2-(4-[[6-(4-[[2-(4-fluorophenyl)-6-hydroxy-1-benzothiophen-3-yl]oxy]phenyl)pyridin-3-yl]oxy]butoxy)acetamido]-3,3-dimethylbutanoyl]-4-hydroxy-N-[[4-(4-methyl-1,3-thiazol-5-yl)phenyl]methyl]pyrrolidine-2-carboxamide] | 3.7 | 1 to 10 | > 75 |
| Cc1ncsc1-c1ccc(CNC(=O)[C@@H]2C[C@@H](O)CN2C(=O)[C@@H](NC(=O)CN2CCN(CCOCCOc3ccc(Oc4c(-c5ccc(Br)cc5)sc5cc(O)ccc45)cc3)CC2)C(C)(C)C)cc1 [Compound 158, (2S,4R)-1-[(2S)-2-[2-(4-[2-[2-(4-[[2-(4-bromophenyl)-6-hydroxy-1-benzothiophen-3-yl]oxy]phenoxy)ethoxy]ethyl]piperazin-1-yl)acetamido]-3,3-dimethylbutanoyl]-4-hydroxy-N-[[4-(4-methyl-1,3-thiazol-5-yl)phenyl]methyl]pyrrolidine-2-carboxamide] | 13.7 | 10 to 100 | > 75 |
| C[C@H](NC(=O)[C@@H]1C[C@@H](O)CN1C(=O)[C@@H](NC(=O)Cc1ccc(-c2ccn(CCOc3ccc(Oc4c(-c5ccc(F)cc5)sc5cc(O)ccc45)cc3)n2)cc1)C(C)(C)C)c1ccc(C#N)cc1 [Compound 149] | 1.4 | 1 to 10 | > 75 |
| Cc1ncsc1-c1ccc(CNC(=O)[C@@H]2C[C@@H](O)CN2C(=O)[C@@H](NC(=O)COCCN2CCN(CCOc3ccc(Oc4c(-c5ccc(Cl)cc5)sc5cc(O)ccc45)cc3)CC2)C(C)(C)C)cc1 [Compound 151, (2S,4R)-1-[(2S)-2-[2-(2-[4-[2-(4-[[2-(4-chlorophenyl)-6-hydroxy-1-benzothiophen-3-yl]oxy]phenoxy)ethyl]piperazin-1-yl]ethoxy)acetamido]-3,3-dimethylbutanoyl]-4-hydroxy-N-[[4-(4-methyl-1,3-thiazol-5-yl)phenyl]methyl]pyrrolidine-2-carboxamide] | 0.4 | < 1 | > 75 |
